# Results published in US8772347B2, “Use of a pharmaceutical composition for promoting proliferation and/or migration of skin cells, and for improving wound healing in a subject” (Kaohsiung Medical University, priority 2011, dated 2014).
# Assays:
# TIMP-1 = assay: Western blotting, human fibroblasts; type: cell-based
# Method: (§1) Signal transduction of skin cells treated with 6-DG is studied. Firstly, 6-DG of different concentration is incubated with 1×10^6 human fibroblasts. After being incubated for 24 hr, the human fibroblasts are washed twice with phosphate-buffered saline (PBS), and then lysed by a lysis buffer containing 50 mM Tris-HCl, pH7.5, 137 mM sodium chloride, 1 mM EDTA, 1% Nonidet P-40, 10% glycerol, 0.1 mM sodium orthovanadate, 10 mM sodium pyrophosphate, 20 mM β-glycerophosphate, 50 mM sodium fluoride, 1 mM phenylmethysulfonyl fluoride, 2 mM leupeptin, and 2 μg/ml aprotinin. A cell extract having the lysed human fibroblasts is separated by a centrifugal force of 10,000 g at 4° C., and supernant of the cell extract is collected for determining protein concentration using Bicinchoninic acid protein assay kit (Pierce, Rockford, Ill., USA). Equal concentration of protein in the supernant is separated by SDS-PAGE, and then blotted to a PVDF membrane (PALL Life Science, Ann Arbor, Mich., USA). After being blocked for 1 hr in phosphate-buffered saline & tween (PBST) containing 5% non-fat milk, primary antibodies are added to the membrane. The membrane is washed with PBST twice, and next secondary antibodies against the primary antibodies are added to the membrane. Finally, signals on the membrane are visualized by enhanced chemiluminescence substrate (PerkinElmer, USA). As the description of “BACKGROUND OF THE INVENTION,” it is said that PMA, an activator for protein kinase C, phosphorylates JNK and ERK to produce MMP-1 and inhibits TIMP-1. For further confirming the effect on signal transduction of skin cells treated with 6-DG, the human fibroblasts are incubated with 20 ng/ml PMA prior to being treated with 6-DG.
# MMP-1 [1] = assay: Western blotting, human fibroblasts; type: cell-based; conditions: compared with cells only treated with PMA
# Method: as §1
# human fibroblasts [2] = assay: Migration of skin cells into wound area (scratch assay, TScratch); type: cell-based
# Method: (§2) Skin cells are cultured following the method provided in Exp Dermatol 2011; 20: 242-8. Human skin fibroblasts are derived from Chung-Ho Memorial Hospital, Kaohsiung Medical University, Taiwan, ROC, and incubated in Dulbecco's Modified Eagle Medium including 10% fetal calf serum, 100 μg/ml streptomycin, and 250 ng/ml amphotericin B. Human keratinocytes are isolated from foreskin primary culture and cultured in Keratinocyte-SFM Medium supplemented with Bovine Pituitary Extract and EGF. All of these cells are incubated at 37° C. in a humidified incubator with 5% CO2 atmosphere.
# (§3) An assay disclosed in Process Biochemistry 2010; 45:1865-72 is performed to analyze the effect on migration of skin cells treated with different 6-DG concentration (dissolved in DMSO). 5×10^5 skin cells are seeded in a 12-well culture dish and grown to complete confluence. Prior to adding 6-DG of different concentration to the dish, a clean […] would area is created on the skin cells. The wound area is photographed using an inverted phase-contrast microscopy (TE2000-U; Nikon, Tokyo, Japan) equipped with NIS-Elements software (Nikon), and the skin cell migration in the wound area is calculated by the free software “TScratch” (www.cse-lab.ethz.ch/software.html). Considering whether DMSO has effect on the skin cell migration or not, skin cells treated with 0.5% DMSO are used as a control.
# human keratinocytes [3] = assay: as above; type: cell-based
# Method: as §2, §3
# MMP-1 [4] = assay: Collagen zymography, MMP-1 activity of human fibroblasts; type: cell-based
# Method: Collagen zymography is performed to analyze the effect on the MMP-1 activity of skin cells treated with 6-DG. After electrophoresis of the foregoing lysed cell extract in SDS-PAGE containing 0.1% collagen, the SDS-PAGE is reacted with 2.5% Triton X-100 to remove SDS and make the protein of the lysed extract folded, and then incubated with a Tris-base buffer containing NaCl, CaCl2, and ZnCl2. Finally, this gel is stained with Coomassie Brilliant Blue R250, and the signal at 52 kDa […] position on the gel is calculated by Gel Pro v4.0 software (Media Cybernetics, Silver Spring, Md., USA).
# “BACKGROUND OF THE INVENTION” of the content is said that PMA, an activator for protein kinase C, phosphorylates JNK and ERK to produce MMP-1, and inhibits TIMP-1. For confirming the effect on the MMP-1 activity of skin cells treated with 6-DG, the human fibroblasts are incubated with 20 ng/ml PMA prior to being treated with 6-DG.
# collagen = assay: Sirius red collagen staining, human fibroblasts; type: cell-based; conditions: for collagen expression level of fibroblasts: FIG. 5(B); for collagen expression level per human fibroblast: FIG. 5(C)
# Method: Sirius red collagen staining is performed to analyze the effect on the collagen expression of skin cells treated with 6-DG 6-DG of different concentration is added to a 24-well culture dish cultured with human fibroblasts. Medium in the dish is removed and the fibroblasts are washed with PBS twice. 100 μl Sirius Red is added to each well of the dish and incubated at room temperature for 1 hr. After removing the unstained Sirius Red, the fibroblasts are washed with 100 μl 0.1N HCl for at least five times, and then 100 μl 0.1N NaOH is used to extract the stained Sirius Red. Finally, the OD value of the extracted stained Sirius Red is calculated by 540 nm-wavelength light. As the described in “BACKGROUND OF THE INVENTION,” it is said that PMA, an activator for protein kinase C, phosphorylates JNK and ERK to produce MMP-1, and inhibits TIMP-1. With regard to the effect on the collagen expression of skin cells treated with 6-DG, the human fibroblasts are incubated with 20 ng/ml PMA prior to being incubated with 6-DG.
# PDGF-αβ [5] = assay: ELISA, growth factor expression in conditioned medium of keratinocytes; type: cell-based, human; conditions: 24 hr, medium supernatant, mean ± SD
# Method: as §2
# (§4) Enzyme-linked immunoassay (ELISA) is performed to analyze the effect on the growth factor expression of skin cells treated with different 6-DG concentration (dissolved in DMSO). Firstly, 6-DG of different concentration is incubated in a 6-well culture dish with skin cells cultured in a conditioned medium for 24 hr. Supernant of the conditioned medium is collected for analyzing the concentration of TGF-β, VEGF, and PDGF-αβ following the directions provided by DuoSet ELISA development kits (R&D Systems, USA). With regard to whether DMSO has effect on the growth factor expression or not, skin cells treated with DMSO are used as a control.
# TGF-β [6] = assay: as above; type: cell-based, human; conditions: 24 hr, medium supernatant, mean ± SD
# Method: as §2, §4
# VEGF [7] = assay: as above; type: cell-based, human; conditions: 24 hr, medium supernatant, mean ± SD
# Method: as §2, §4
# human fibroblasts [8] = assay: Proliferation of human fibroblasts with or without PMA (FIG. 5(A)); type: cell-based
# human fibroblasts [9] = assay: MTT assay, proliferation of skin cells; type: cell-based; conditions: for proliferation of human fibroblasts compared with control: 24 hr, MTT, FIG. 2(A)
# Method: as §2
# (§5) 3-(4,5-cimethylthiazol-2-yl)-2,5-diphenyl tetrazolium bromide assay (MTT assay) is performed to analyze the effect on the proliferation of skin cells treated with different 6-DG concentration (dissolved in DMSO). Firstly, 6-DG of different concentration is seeded in a 96-well culture dish cultured with skin cells and incubated for 24 hr. MIT solution (5 mg/ml, dissolved in PBS) is added into the dish and incubated again at 37° C. for 2 hr. Medium in the dish is removed, 0.05 ml DMSO is added to the dish, and then the dish is shaken in a dark position for 20 min. Finally, the OD value of each well of the dish is calculated by 595 nm-wavelength light (UV-vis, BioTek, USA). Considering whether DMSO has effect on the skin cell proliferation or not, skin cells treated with DMSO are used as a control.
# human keratinocytes [10] = assay: MTT assay, proliferation of skin cells; type: cell-based; conditions: 24 hr, FIG. 2(B)
# Method: as §2, §5
# c-Jun and ERK = assay: Western blotting, human fibroblasts, phosphorylation; type: cell-based; conditions: compared with cells only treated with PMA
# Method: Signal transduction of skin cells treated with 6-DG is studied. Firstly, 6-DG of different concentration is incubated with 1×10^6 human fibroblasts. After being incubated for 24 hr, the human fibroblasts are washed twice with phosphate-buffered saline (PBS), and then lysed by a lysis buffer containing 50 mM Tris-HCl, pH7.5, 137 mM sodium chloride, 1 mM EDTA, 1% Nonidet P-40, 10% glycerol, 0.1 mM sodium orthovanadate, 10 mM sodium pyrophosphate, 20 mM β-glycerophosphate, 50 mM sodium fluoride, 1 mM phenylmethysulfonyl fluoride, 2 mM leupeptin, and 2 μg/ml aprotinin. A cell extract having the lysed human fibroblasts is separated by a centrifugal force of 10,000 g at 4° C., and supernant of the cell extract is collected for determining protein concentration using Bicinchoninic acid protein assay kit (Pierce, Rockford, Ill., USA). Equal concentration of protein in the supernant is separated by SDS-PAGE, and then blotted to a PVDF membrane (PALL Life Science, Ann Arbor, Mich., USA). After being blocked for 1 hr in phosphate-buffered saline & tween (PBST) containing 5% non-fat milk, primary antibodies are added to the membrane. The membrane is washed with PBST twice, and next secondary antibodies against the primary antibodies are added to the membrane. Finally, signals on the membrane are visualized by enhanced chemiluminescence substrate (PerkinElmer, USA). […]
# PDGF-αβ [11] = assay: ELISA, growth factor expression in conditioned medium of fibroblasts; type: cell-based, human; conditions: 24 hr, medium supernatant, mean ± SD
# Method: as §2, §4
# TGF-β [12] = assay: as above; type: cell-based, human; conditions: 24 hr, medium supernatant, mean ± SD
# Method: as §2, §4
# VEGF [13] = assay: as above; type: cell-based, human; conditions: 24 hr, medium supernatant, mean ± SD
# Method: as §2, §4
# [14] = skin cells (fibroblasts and keratinocytes), based on the volume of the composition
# [15] = 20 ng/ml PMA prior to 6-DG, compared with PMA only
# [16] = 6-DG, compared with untreated (control) and PMA only
smiles,measurement,setting,value
"CCCCCC(=O)/C=C(O)/C=C/c1ccc(O)c(OC)c1 [6-DG, 6-dehydrogingerdione]",expression of TIMP-1,"TIMP-1; 6-DG 24 hr, compared with fibroblasts untreated",up-regulate the expression of TIMP-1
same,expression level of TIMP-1,"TIMP-1; 6-DG, compared with cells only treated with PMA",up-regulated expression level of TIMP-1
same,expression level of MMP-1,MMP-1 [1]; 20 ng/ml PMA prior to 6-DG,down-regulated expression level of MMP-1
same,expression level of MMP-1,MMP-1 [1]; 6-DG,down-regulated expression level of MMP-1
same,migration of human fibroblasts to the wound area,human fibroblasts [2]; 2 μM 6-DG for 24 hr,more obvious
same,migration of human fibroblasts to the wound area,"human fibroblasts [2]; 10 μM 6-DG, compared with 2 μM",less obvious than that after being treated with 2 μM
same,effective concentration for promoting migration of skin cells,human fibroblasts [2]; [14],2 to 50 µM
same,migration of human fibroblasts to the wound area compared with control,"human fibroblasts [2]; treated with 6-DG, FIGS. 3(A)-3(B)",obviously migrate to the wound area
same,migration of human keratinocytes to the wound area,human keratinocytes [3]; 2 μM 6-DG for 24 hr,more obvious
same,migration of human keratinocytes to the wound area,"human keratinocytes [3]; 10 μM 6-DG, compared with 2 μM",less obvious than that after being treated with 2 μM
same,migration of human keratinocytes to the wound area compared with control,"human keratinocytes [3]; treated with 6-DG, FIGS. 3(C)-3(D)",obviously migrate to the wound area
same,activity of MMP-1,"MMP-1 [4]; 20 ng/ml PMA prior to 6-DG, compared with fibroblasts only treated with PMA",lower activity of MMP-1
same,activity of MMP-1,"MMP-1 [4]; 6-DG, compared with fibroblasts only treated with PMA",lower MMP-1 activity
same,activity of MMP-1,"MMP-1 [4]; 6-DG, compared with fibroblasts untreated, FIGS. 6(A)-6(B)",no obvious difference
same,collagen expression level of fibroblasts,collagen; [15],still have up-regulated expression of collagen
same,collagen expression level per human fibroblast,collagen; [15],still has up-regulated expression of collagen
same,collagen expression level of fibroblasts,collagen; [16],up-regulated expression of collagen
same,collagen expression level per human fibroblast,collagen; [16],up-regulated expression of collagen
same,PDGF-αβ,PDGF-αβ [5]; 6-DG 2 μM,5.84 ± 0.2 pg/mL
same,PDGF-αβ,PDGF-αβ [5]; 6-DG 10 μM,4.55 ± 0.1 pg/mL
same,TGF-β,TGF-β [6]; 6-DG 2 μM,822.8 ± 15.3 pg/mL
same,TGF-β,TGF-β [6]; 6-DG 10 μM,768.0 ± 9.6 pg/mL
same,VEGF,VEGF [7]; 6-DG 2 μM,344.3 ± 9.5 pg/mL
same,VEGF,VEGF [7]; 6-DG 10 μM,292.8 ± 7.3 pg/mL
same,proliferation of fibroblasts,human fibroblasts [8]; [15],still have obvious proliferation
same,proliferation of fibroblasts,human fibroblasts [8]; [16],obvious proliferation
same,proliferation of human fibroblasts compared with control,human fibroblasts [9]; 2 μM 6-DG,obviously proliferated
same,proliferation of human fibroblasts compared with control,human fibroblasts [9]; 50 μM 6-DG,obviously proliferated
same,proliferation of human fibroblasts compared with control,human fibroblasts [9]; 100 μM 6-DG,not obviously proliferated
same,effective concentration for promoting skin cell proliferation,human fibroblasts [9]; [14],2 to 50 µM
same,proliferation of human keratinocytes compared with control,human keratinocytes [10]; 2 μM 6-DG,obviously proliferated
same,proliferation of human keratinocytes compared with control,human keratinocytes [10]; 50 μM 6-DG,obviously proliferated
same,proliferation of human keratinocytes compared with control,human keratinocytes [10]; 100 μM 6-DG,not obviously proliferated
same,phosphorylation level of c-Jun and ERK,c-Jun and ERK; 20 ng/ml PMA prior to 6-DG,less phosphorylation level of c-Jun and ERK
same,phosphorylation level of c-Jun and ERK,c-Jun and ERK; 6-DG,less phosphorylation level of c-Jun and ERK
same,PDGF-αβ,PDGF-αβ [11]; 6-DG 2 μM,7.1 ± 0.1 pg/mL
same,PDGF-αβ,PDGF-αβ [11]; 6-DG 10 μM,5.3 ± 0.1 pg/mL
same,TGF-β,TGF-β [12]; 6-DG 2 μM,984.5 ± 21.6 pg/mL
same,TGF-β,TGF-β [12]; 6-DG 10 μM,1003.3 ± 24.0 pg/mL
same,VEGF,VEGF [13]; 6-DG 2 μM,432.0 ± 14.6 pg/mL
same,VEGF,VEGF [13]; 6-DG 10 μM,294.5 ± 14.6 pg/mL
